Data published in patent publication US12295997B2, “Prostate neoantigens and their uses” (Janssen Biotech, Inc., priority 2020, dated 2025).

Test system: CD8+ and CD4+ T cells (autologous CD3+ Pan-T cells isolated from human normal PBMCs)
Assay: Exogenous autologous normal donor restimulation assay (15-mer overlapping peptide pools on CD1c+ dendritic cells, TNFα/IFNγ flow cytometry)
Type: cell-based
Conditions: 15-mer overlapping peptide pool; for Max. Fold Change over background CD4+ TNFαINFγ double positive DP / Max. Fold Change over background CD8+ TNFαINFγ double positive DP / Max. Frequency of CD4+ TNFαINFγ DP / Max. Frequency of CD8+ TNFαINFγ DP: Table 28, additional neoantigens, highest across normal donors; for Maximum Fold Change Over Background CD4+ cells / Maximum Fold Change Over Background CD8+ cells / Maximum Frequency of TNFα/IFNγ Double Positive CD4+ T cells / Maximum Frequency of TNFα/IFNγ Double Positive CD8+ T cells: Table 25; for Maximum Fold Change Over Background CD4+ cells: TNFα+IFNγ+ CD4+ T cells; for Maximum Fold Change Over Background CD4+ cells / Maximum Fold Change Over Background CD8+ cells: highest fold change over negative control across normal donors; for Maximum Fold Change Over Background CD8+ cells: TNFα+IFNγ+ CD8+ T cells; for Maximum Frequency of TNFα/IFNγ Double Positive CD4+ T cells / Maximum Frequency of TNFα/IFNγ Double Positive CD8+ T cells: highest frequency across normal donors
In short: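 Readout was intracellular TNFα/IFNγ flow cytometry on live CD3+ CD8+ and CD4+ cells after day-11 peptide restimulation. Stimulators were CD1c+ dendritic cells loaded with overlapping 15-mer peptide pools (2.5–10 μg/mL), irradiated, and cultured 12 days with autologous normal-donor Pan-T cells plus IL-15/IL-2. A response counted when ≥3-fold over DMSO control and at least 0.01%.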

QQLRIFCAAMASNEDFS (listed as Homo sapiens) [FUS11, MBTPS2->YY2 gene fusion]
Max. Fold Change over background CD4+ TNFαINFγ double positive DP: 28.57 | Max. Fold Change over background CD8+ TNFαINFγ double positive DP: 2.63 | Max. Frequency of CD4+ TNFαINFγ DP: 0.16 | Max. Frequency of CD8+ TNFαINFγ DP: 0.1

QWQHYHRSGEAAGTPLWRPTRN (listed as Homo sapiens) [AS19, NWD1 alternative splicing]
Maximum Fold Change Over Background CD4+ cells: 2.59 | Maximum Fold Change Over Background CD8+ cells: 5.87 | Maximum Frequency of TNFα/IFNγ Double Positive CD4+ T cells: 0.1 | Maximum Frequency of TNFα/IFNγ Double Positive CD8+ T cells: 0.63

RLTQRLVQGWTPMENRWCGRRAGGQPASSSTRWTTCRAACLLTKWTAGRSQTSIG (listed as Homo sapiens) [AS49, PDF alternative splicing]
Max. Fold Change over background CD4+ TNFαINFγ double positive DP: 184.87 | Max. Fold Change over background CD8+ TNFαINFγ double positive DP: 8.67 | Max. Frequency of CD4+ TNFαINFγ DP: 0.14 | Max. Frequency of CD8+ TNFαINFγ DP: 0.65

RTALTHNQDFSIYRLCCKRGSLCHASQARSPAFPKPVRPLPAPITRITPQLGGQSDSSQPLLTTGRPQGWQDQALRHTQQASPASCATITIPIHSAALGDHSGDPGPAWDTCPPLPLTTLIPRAPPPYGDSTARSWPSRCGPLG [MS3]
Maximum Fold Change Over Background CD4+ cells: 13.61 | Maximum Fold Change Over Background CD8+ cells: 36.15 | Maximum Frequency of TNFα/IFNγ Double Positive CD4+ T cells: 0.09 | Maximum Frequency of TNFα/IFNγ Double Positive CD8+ T cells: 0.47

TEISCCTLSSEENEYLPRPEWQLQ (listed as Homo sapiens) [FUS3, MSMB->NCOA4 gene fusion]
Maximum Fold Change Over Background CD4+ cells: 2.75 | Maximum Fold Change Over Background CD8+ cells: 3.94 | Maximum Frequency of TNFα/IFNγ Double Positive CD4+ T cells: 0.033 | Maximum Frequency of TNFα/IFNγ Double Positive CD8+ T cells: 0.063

TEYNQKLQVNQFSESK (listed as Homo sapiens) [FUS2, ARHGEF38->ARHGEF38-IT1 gene fusion]
Maximum Fold Change Over Background CD4+ cells: 2.14 | Maximum Fold Change Over Background CD8+ cells: 3.13 | Maximum Frequency of TNFα/IFNγ Double Positive CD4+ T cells: 0.03 | Maximum Frequency of TNFα/IFNγ Double Positive CD8+ T cells: 0.05

TGGKSTCSAPGPQSLPSTPFSTYPQWVILITEL (listed as Homo sapiens) [AS57, KLK3 alternative splicing]
Maximum Fold Change Over Background CD4+ cells: 11.00 | Maximum Fold Change Over Background CD8+ cells: 4.67 | Maximum Frequency of TNFα/IFNγ Double Positive CD4+ T cells: 0.110 | Maximum Frequency of TNFα/IFNγ Double Positive CD8+ T cells: 0.056

TMPAILKLQKNCLLSL (listed as Homo sapiens) [MS8]
Maximum Fold Change Over Background CD4+ cells: 15.60 | Maximum Fold Change Over Background CD8+ cells: 4.44 | Maximum Frequency of TNFα/IFNγ Double Positive CD4+ T cells: 0.40 | Maximum Frequency of TNFα/IFNγ Double Positive CD8+ T cells: 0.14

VAMMVPDRQVHYDFGL (listed as Homo sapiens) [AS3, DNAH8 alternative splicing]
Maximum Fold Change Over Background CD4+ cells: 3.86 | Maximum Fold Change Over Background CD8+ cells: 7.92 | Maximum Frequency of TNFα/IFNγ Double Positive CD4+ T cells: 0.054 | Maximum Frequency of TNFα/IFNγ Double Positive CD8+ T cells: 0.095

VETLENANSFSSGIQPLLCSLIGLENPT (listed as Homo sapiens) [AS58, CREB3L1 alternative splicing]
Max. Fold Change over background CD4+ TNFαINFγ double positive DP: 6.27 | Max. Fold Change over background CD8+ TNFαINFγ double positive DP: 4.54 | Max. Frequency of CD4+ TNFαINFγ DP: 0.24 | Max. Frequency of CD8+ TNFαINFγ DP: 0.6

VLRFLDLKVRYLHS (listed as Homo sapiens) [AS15, LRRC45 alternative splicing]
Maximum Fold Change Over Background CD4+ cells: 9.17 | Maximum Fold Change Over Background CD8+ cells: 4.36 | Maximum Frequency of TNFα/IFNγ Double Positive CD4+ T cells: 0.110 | Maximum Frequency of TNFα/IFNγ Double Positive CD8+ T cells: 0.061

VVGRRHETAPQPLLVPDRAGGEGGA (listed as Homo sapiens) [AS5, DHDH alternative splicing]
Max. Fold Change over background CD4+ TNFαINFγ double positive DP: 8.71 | Max. Fold Change over background CD8+ TNFαINFγ double positive DP: 2.13 | Max. Frequency of CD4+ TNFαINFγ DP: 0.1 | Max. Frequency of CD8+ TNFαINFγ DP: 0.16

WCPLDLRLGSTGCLTCRHHQTSHE (listed as Homo sapiens) [AS4, NCAPD3 alternative splicing]
Max. Fold Change over background CD4+ TNFαINFγ double positive DP: 37.38 | Max. Fold Change over background CD8+ TNFαINFγ double positive DP: 5.4 | Max. Frequency of CD4+ TNFαINFγ DP: 1.43 | Max. Frequency of CD8+ TNFαINFγ DP: 0.17

B1: YAYKDFLWCFPFSLVFLQEIQICCHVSCLCCICCSTRICLGCLLELFLSRALRALHVLWNGFQLHCQ (peptide, listed as Homo sapiens)
chain: YAYKDFLWCFPFSLVFLQEIQICCHVSCLCCICCSTRICLGCLLELFLSRALRALHVLWNGFQLHCQ
Maximum Fold Change Over Background CD4+ cells: 111.97 | Maximum Fold Change Over Background CD8+ cells: 4.17 | Maximum Frequency of TNFα/IFNγ Double Positive CD4+ T cells: 0.87 | Maximum Frequency of TNFα/IFNγ Double Positive CD8+ T cells: 0.08

B2: LWFQSSELSPTGAPWPSRRPTWRGTTVSPRTATSSARTCCGTKWPSSQEAALGLGSGLLRFSCGTAAIR (peptide, listed as Homo sapiens)
chain: LWFQSSELSPTGAPWPSRRPTWRGTTVSPRTATSSARTCCGTKWPSSQEAALGLGSGLLRFSCGTAAIR
notes: NME4->DECR2 gene fusion
Maximum Fold Change Over Background CD4+ cells: 36.13 | Maximum Fold Change Over Background CD8+ cells: 8.89 | Maximum Frequency of TNFα/IFNγ Double Positive CD4+ T cells: 0.04 | Maximum Frequency of TNFα/IFNγ Double Positive CD8+ T cells: 0.16

B3: VPFRELKNQRTAQGAPGIHHAASPVAANLCDPARHAQHTRIPCGAGQVRAGRGPEAGGGVLQPQRPAPEKPGCPCRRGQPRLHTVKMWRA (peptide, listed as Homo sapiens)
chain: VPFRELKNQRTAQGAPGIHHAASPVAANLCDPARHAQHTRIPCGAGQVRAGRGPEAGGGVLQPQRPAPEKPGCPCRRGQPRLHTVKMWRA
notes: CPNE7 alternative splicing
Maximum Fold Change Over Background CD4+ cells: 2.98 | Maximum Fold Change Over Background CD8+ cells: 5.11 | Maximum Frequency of TNFα/IFNγ Double Positive CD4+ T cells: 0.03 | Maximum Frequency of TNFα/IFNγ Double Positive CD8+ T cells: 0.07

B4: VPFRELKNVSVLEGLRQGRLGGPCSCHCPRPSQARLTPVDVAGPFLCLGDPGLFPPVKSSI (peptide, listed as Homo sapiens)
chain: VPFRELKNVSVLEGLRQGRLGGPCSCHCPRPSQARLTPVDVAGPFLCLGDPGLFPPVKSSI
notes: CPNE7 alternative splicing
Maximum Fold Change Over Background CD4+ cells: 5.67 | Maximum Fold Change Over Background CD8+ cells: 28.75 | Maximum Frequency of TNFα/IFNγ Double Positive CD4+ T cells: 0.040 | Maximum Frequency of TNFα/IFNγ Double Positive CD8+ T cells: 0.460

B5: CHLFLQPQVGTPPPHTASARAPSGPPHPHESCPAGRRPARAAQTCARRQHGLPGCEEAGTARVPSLHLHLHQAALGAGRGRGWGEACAQVPPSRG (peptide, listed as Homo sapiens)
chain: CHLFLQPQVGTPPPHTASARAPSGPPHPHESCPAGRRPARAAQTCARRQHGLPGCEEAGTARVPSLHLHLHQAALGAGRGRGWGEACAQVPPSRG
notes: RECQL4 alternative splicing
Maximum Fold Change Over Background CD4+ cells: 7.51 | Maximum Fold Change Over Background CD8+ cells: 19.47 | Maximum Frequency of TNFα/IFNγ Double Positive CD4+ T cells: 0.04 | Maximum Frequency of TNFα/IFNγ Double Positive CD8+ T cells: 0.74

B6: QNLQNGGGSRSSATLPGRRRRRWLRRRRQPISVAPAGPPRRPNQKPNPPGGARCVIMRPTWPGTSAFT (peptide, listed as Homo sapiens)
chain: QNLQNGGGSRSSATLPGRRRRRWLRRRRQPISVAPAGPPRRPNQKPNPPGGARCVIMRPTWPGTSAFT
notes: ZFHX3 E763Sfs*61
Maximum Fold Change Over Background CD4+ cells: 4.89 | Maximum Fold Change Over Background CD8+ cells: 7.92 | Maximum Frequency of TNFα/IFNγ Double Positive CD4+ T cells: 0.04 | Maximum Frequency of TNFα/IFNγ Double Positive CD8+ T cells: 0.38

B7: HYKLIQQPISLFSITDRLHKTFSQLPSVHLCSITFQWGHPPIFCSTNDICVTANFCISVTFLKPCFLLHEASASQ (peptide, listed as Homo sapiens)
chain: HYKLIQQPISLFSITDRLHKTFSQLPSVHLCSITFQWGHPPIFCSTNDICVTANFCISVTFLKPCFLLHEASASQ
Maximum Fold Change Over Background CD4+ cells: 50.19 | Maximum Fold Change Over Background CD8+ cells: 5.56 | Maximum Frequency of TNFα/IFNγ Double Positive CD4+ T cells: 0.39 | Maximum Frequency of TNFα/IFNγ Double Positive CD8+ T cells: 0.1

B8: WGMELAASRRFSWDHHSAGGPPRVPSVRSGAAQVQPKDPLPLRTLAGCLARTAHLRPGAESLPQPQLHCT (peptide, listed as Homo sapiens)
chain: WGMELAASRRFSWDHHSAGGPPRVPSVRSGAAQVQPKDPLPLRTLAGCLARTAHLRPGAESLPQPQLHCT
notes: INCA1->CAMTA2 gene fusion
Maximum Fold Change Over Background CD4+ cells: 7.15 | Maximum Fold Change Over Background CD8+ cells: 1.89 | Maximum Frequency of TNFα/IFNγ Double Positive CD4+ T cells: 0.04 | Maximum Frequency of TNFα/IFNγ Double Positive CD8+ T cells: 0.08
